The record followed here is ChEMBL document CHEMBL4130392, “Eugenol derived immunomodulatory molecules against visceral leishmaniasis” (Eur J Med Chem, 2017).

pEC50, pIC50: −log10 of the molar value.

The subject of data set [1] is Leishmania donovani. Put plainly: Antileishmanial activity against Leishmania donovani MHOM/IN/AG/83 promastigotes after 48 hrs by MTT assay. It counts as functional, organism-based. Particulars: MHOM/IN/AG/83, 48 h.
For data set [2], the system named is Leishmania donovani. Put plainly: Antileishmanial activity against Leishmania donovani MHOM/IN/AG/83 amastigotes infected in BALB/c mouse peritoneal macrophages after 42 hrs by Giemsa staining-based microscopic analysis. As to conditions: MHOM/IN/AG/83, 42 h. Type of data set: functional, organism-based.
Data set [3] relates to RAW264.7. Put plainly: Cytotoxicity against mouse RAW264.7 cells after 48 hrs by MTT assay. Type of data set: cell-based. Particulars: RAW264.7, 48 h. In general terms: Tetrazolium dyes change colour on reduction, which living cells bring about.
Data set [4] relates to Peritoneal macrophage. Put plainly: Cytotoxicity against BALB/c mouse peritoneal macrophages after 48 hrs by MTT assay. It counts as cell-based.
Data set [5] is described as follows: Therapeutic index, ratio of IC50 for mouse RAW264.7 cells to IC50 for Leishmania donovani MHOM/IN/AG/83 promastigotes. Type of data set: toxicity. Particulars: read-out: Ratio IC50.
Data set [6] is described as follows: Therapeutic index, ratio of EC50 for BALB/c mouse peritoneal macrophages to EC50 for Leishmania donovani MHOM/IN/AG/83 amastigotes. It counts as toxicity. As to conditions: read-out: Ratio EC50.
The test system of data set [7] is Peritoneal macrophage. Put plainly: Induction of NO generation in Leishmania donovani MHOM/IN/AG/83 infected BALB/c mouse peritoneal macrophages assessed as nitrite levels after 48 hrs by Griess assay relative to untreated control. Type of data set: functional. Background: The Griess reaction detects nitrite, a stable product of nitric oxide.
Data set [8] in a line: Drug uptake in mouse RAW264.7 cells assessed as retention time at 10 ug/ml incubated for 3 hrs by HPLC method. Type of data set: ADME, cell-based. As to conditions: raw264.7, 3 h.
Data set [9] can be described thus: Drug uptake in mouse RAW264.7 cells assessed as ratio of drug level (cell lysate)/(drug level (supernatant) + drug level (cell lysate) at 10 ug/ml incubated for 3 hrs by HPLC method. Particulars: raw264.7, 3 h. It counts as ADME, cell-based.

Consider `C=CCc1ccc(O)c(OC)c1` [EUGENOL], for which the negative logarithm of the IC50 (pIC50) in data set [1] was 3.35; in data set [3] it was 3.28. For the same compound, the pEC50 in [2] was 3.76; in [4], 3.32. Moreover, the selectivity ratio in data set [5] came out at 1.19; in data set [6], 2.75. Besides, the Activity result in data set [7] is “Dose-dependent effect”; in data set [7] (record 2), 7.45 µM. Also, the Retention_time in data set [8] is on record as 3.133 min. For the same compound, the Ratio in [9] was 0.21.

For `C=CCc1ccc(OC(=O)COc2ccccc2)c(OC)c1`, the results for the pIC50 in data set [1] and in data set [3] were 4.54 and 3.40, respectively. In addition, the pEC50 is 5.14 in [2] and 3.41 in [4]. Also, the selectivity ratio in [5] stood at 13.7; in data set [6], 55.1. Besides, the Activity result was “Dose-dependent effect” in data set [7] and 39.02 µM in [7] (record 2). Further, the Retention_time in [8] is recorded as 3.867 min. Also, the Ratio in data set [9] came out at 0.73.

On to `C=CCc1ccc(OCCC)c(OC)c1` [PROPYLEUGENOL], for which the pIC50 was 3.88 in [1] and 3.96 in data set [3]. Further, the pEC50 was 3.81 in [2] and 3.96 in [4]. For the same compound, the selectivity ratio came out at 0.83 in data set [5] and 0.71 in data set [6]. The Activity result in [7] was “Dose-dependent effect”; in [7] (record 2), 10.64 µM.

On to `C=CCc1ccc(OCC)c(OC)c1` [ETHYLEUGENOL], for which the pIC50 was 4.14 in data set [1] and 3.99 in data set [3]. In addition, the pEC50 in data set [2] is 3.79; in data set [4], 4.04. Besides, the selectivity ratio turned out to be 1.43 in data set [5] and 0.55 in [6]. The Activity entry in data set [7] was “Dose-dependent effect”; in data set [7] (record 2), 10.43 µM.

Turning to `C=CCc1ccc(OC(=O)CCCCCCCCCCC)c(OC)c1`, the figures for the pIC50 in data set [1] and in data set [3] were 4.25 and 3.28, respectively. In addition, the negative logarithm of the EC50 (pEC50) in data set [2] was 4.71; in data set [4], 3.30. Further, the results for the selectivity ratio in data set [5] and in data set [6] were 9.36 and 25.9, respectively. In addition, the Activity result in data set [7] is “Dose-dependent effect”; in data set [7] (record 2) it was 34.28 µM.

As to `C=CCc1ccc(OCCCCCCCCCCCCCCCC)c(OC)c1`, the negative-log IC50 (pIC50) was 4.24 in data set [1] and 3.54 in [3]. In addition, the results for the pEC50 in data set [2] and in [4] were 4.77 and 3.60, respectively. Also, the selectivity ratio stood at 5.02 in [5] and 14.5 in data set [6]. Moreover, the results for the Activity entry in data set [7] and in [7] (record 2) were “Dose-dependent effect” and 29.1 µM, respectively.

Regarding `C=CCc1ccc(OCC=C(C)C)c(OC)c1`, the pIC50 in data set [1] is 3.62; in data set [3], 3.45. Moreover, the pEC50 in data set [2] was 3.80; in data set [4], 3.43. Besides, the figures for the selectivity ratio in [5] and in [6] were 1.48 and 2.38, respectively. For the same compound, the values for the Activity entry in data set [7] and in [7] (record 2) were “Dose-dependent effect” and 8.37 µM, respectively.

For the compound `C=CCc1ccc(OCCCCCCCCCC)c(OC)c1`, the pIC50 in data set [1] is 4.30; in data set [3], 3.39. Besides, the figures for the pEC50 in data set [2] and in [4] were 4.54 and 3.56, respectively. In addition, the results for the selectivity ratio in data set [5] and in data set [6] were 8.61 and 9.67, respectively. In addition, the Activity result in data set [7] was “Dose-dependent effect”; in [7] (record 2) it was 26.17 µM.

In the case of `C=CCc1ccc(OC(=O)CCCCCCC)c(OC)c1`, the values for the pIC50 in [1] and in [3] were 4.17 and 3.24, respectively. Also, the pEC50 was 4.27 in data set [2] and 3.25 in [4]. Further, the selectivity ratio in [5] was determined as 8.95; in data set [6], 11. The Activity entry in data set [7] was “Dose-dependent effect”; in [7] (record 2), 24.23 µM.

On to `C=CCc1ccc(OC)c(OC)c1` [METHYLEUGENOL], for which the pIC50 in [1] is 3.32; in data set [3], 3.29. For the same compound, the results for the pEC50 in data set [2] and in data set [4] were 3.69 and 3.31, respectively. The selectivity ratio in [5] was determined as 1.09; in data set [6], 2.39. Further, the Activity entry in data set [7] is “Dose-dependent effect”; in data set [7] (record 2) it was 10.82 µM.

As to `C=CCOc1ccc(CC=C)cc1OC` [ALLYLEUGENOL], the pIC50 was 3.62 in data set [1] and 3.41 in [3]. Further, the negative logarithm of the EC50 (pEC50) is 3.92 in data set [2] and 3.45 in [4]. Further, the values for the selectivity ratio in data set [5] and in data set [6] were 1.64 and 2.95, respectively. Moreover, the Activity entry is “Dose-dependent effect” in data set [7] and 13.86 µM in data set [7] (record 2).

Turning to `CCCCCCCCCCCCCCCCOP(=O)([O-])OCC[N+](C)(C)C` [MILTEFOSINE], the pIC50 in data set [1] is 4.98; in data set [3], 4.35. In addition, the pEC50 in data set [2] was 5.19; in data set [4] it was 4.39. The selectivity ratio is 4.3 in data set [5] and 6.34 in data set [6]. Besides, the values for the Activity entry in data set [7] and in [7] (record 2) were “Dose-dependent effect” and 26.01 µM, respectively.

For `C=CCc1ccc(OC(=O)c2ccc(F)cc2)c(OC)c1`, the pIC50 in [1] was 4.21; in data set [3], 3.44. Moreover, the pEC50 in data set [2] is 4.11; in [4] it was 3.40. Besides, the selectivity ratio in data set [5] turned out to be 5.93; in [6] it was 5.24. For the same compound, the Activity entry in data set [7] is “Dose-dependent effect”; in [7] (record 2), 14.56 µM.

As to `C=CCc1ccc(OC(C)=O)c(OC)c1` [EUGENYL ACETATE], the pIC50 in [1] is 3.78; in data set [3], 3.45. Besides, the pEC50 in data set [2] is 4.00; in data set [4], 3.45. Further, the values for the selectivity ratio in [5] and in data set [6] were 2.15 and 3.59, respectively. Further, the Activity entry in [7] is “Dose-dependent effect”; in data set [7] (record 2) it was 12.44 µM.

Usually pIC50 stands for the IC50 on a negative log10 scale, so that one unit is a factor of ten. A higher pIC50 goes with a small IC50. What is called pEC50 is the EC50 on a negative log10 scale, so that one unit is a factor of ten. High values mean a small EC50, low ones a large EC50.
